Results taken from patent publication US20060115815A1 (priority 2002, published 2006).
Read-outs that look alike come from different tables or passages of the source.

Columns and labels:
[1] = target: recombinant HIV-1 protease (Human immunodeficiency virus type 1 group M subtype B, UniProt P04585); assay: biochemical; type: biochemical
WT HIV-1 = assay: microbe, parasite or virus in culture; type: cell-based
[2] = tested on: mutant HIV-1 with I84V/L90M mutations in the protease gene; type: cell-based
[3] = tested on: wild-type HIV-1 strain IIIB; assay: microbe, parasite or virus in culture; type: cell-based
84V90M = 84V90M (Human immunodeficiency virus type 1 group M subtype B, UniProt P04585, I572V/L578M); assay: cell-based; design: species or system HIV-1
[4] = tested on: recombinant HIV-1 strains with resistance mutations in the protease gene; assay: Cross-resistance profile assay, whole panel of mutant viruses; type: cell-based; conditions: {}
WT = assay: microbe, parasite or virus in culture; type: cell-based, HIV-1; conditions: Human immunodeficiency virus 1, read-out: Cell-based assay (MT-4) EC50 WT
30N82I88D = assay: microbe, parasite or virus in culture; type: cell-based, HIV-1; conditions: Human immunodeficiency virus 1, read-out: Cell-based assay (MT-4) EC50 30N82I88D
[5] = Ki (pM), class symbols, Table 10
[6] = fold difference in EC50, mutant vs. wild type

## COc1ccc(CN2C(=O)N(Cc3ccc(OCc4ccccc4)cc3)[C@H](Cc3ccccc3)[C@H](O)[C@@H](O)[C@H]2Cc2ccccc2)cc1C#N
[1]; read-out: Enzymatic assay Ki
  Ki: > 5000 pM
WT HIV-1; MT-4, WT, read-out: Cell-based assay (MT-4) EC50/nM WT
  EC50: 5950 nM

## CCOC(=O)C(C)OP(=O)(COc1ccc(C[C@H](NC(=O)O[C@H]2CO[C@H]3OCC[C@H]32)[C@H](O)CN(CC(C)C)S(=O)(=O)c2ccccc2)cc1)Oc1ccccc1 (stereo partly shown)
[2]; I84V/L90M mutant
  I84V/L90M fold change: + (>3 to ≦10)
[3]; read-out: EC50
  EC50: < 50 nM

## CCOP(=O)(COCCCCN1C(=O)N(Cc2ccc3[nH]nc(N)c3c2)C(Cc2ccccc2)C(O)C(O)C1Cc1ccccc1)OCC (stereo not shown) [CH2OCH2PO3Et2]
84V90M
  EC50: 3300 nM

## CC(C)CN(CC(O)C(Cc1ccccc1)NC(=O)OC1COC2OCCC12)S(=O)(=O)c1ccc(OCP(=O)(O)Oc2ccccc2)cc1 (stereo not shown)
[1]; Ki
  Ki: 10 to 100 pM

## COc1ccc(S(=O)(=O)N(CC(C)C)CC(O)C(CN(C)Cc2ccc(P(=O)(O)OC(C)C(=O)O)cc2)NC(=O)OC2COC3OCCC23)cc1 (stereo not shown)
[1]; read-out: Ki
  Ki: > 1000 pM

## CC[C@H](OP(=O)(O)COc1ccc(C[C@H](NC(=O)O[C@H]2CO[C@H]3OCC[C@H]32)[C@H](O)CN(CC(C)C)S(=O)(=O)c2ccc(OC)cc2)cc1)C(=O)O [drawing 659 R1=OH R2=(S)Hba-OH]
[1]; read-out: Ki
  Ki: 10 to 100 pM

## Cc1ccc(C(=O)N[C@@H](Cc2ccc(OCP(=O)(Oc3ccccc3)Oc3ccccc3)cc2)[C@H](O)CN(CC(C)C)S(=O)(=O)c2ccc(N)cc2)cc1O
[1]; read-out: Ki
  Ki: 100 to 1000 pM
[2]; I84V/L90M mutant
  I84V/L90M fold change: + (>3 to ≦10)
[3]; read-out: EC50
  EC50: 50 to 500 nM

## COc1ccc(S(=O)(=O)N(CC(C)C)CC(O)C(Cc2ccc(O)cc2)NC(=O)OC2COC3OCCC23)cc1 (stereo not shown)
[2]; I84V/L90M mutant
  I84V/L90M fold change: — (≦3)
[3]; read-out: EC50
  EC50: < 50 nM

## COC(=O)C(C)OP(=O)(COc1ccc(CC(NC(=O)OC2COC3OCCC23)C(O)CN(CC(C)C)S(=O)(=O)c2ccc(OC)cc2)cc1)Oc1ccccc1 [drawing 658 R1=OPh R2=(R)Lac-Me]
[1]; [5]
  Ki: < 10 pM

## CC(C)(C)NC(=O)[C@@H]1CN(Cc2cccnc2)CCN1C[C@@H](O)C[C@@H](Cc1ccccc1)C(=O)N[C@H]1c2ccccc2C[C@H]1O [Indinavir, reference compound]
[4]
  Total No. of Resistant Viruses: 8
WT HIV-1; Human immunodeficiency virus 1, read-out: EC50 [nM] WT HIV-1
  EC50: 15 nM

## COc1ccc(S(=O)(=O)N(CC(C)C)CC(O)C(Cc2ccc(C)cc2)NC(=O)OC2COC3OCCC23)cc1 (stereo not shown)
[2]; I84V/L90M mutant
  I84V/L90M fold change: + (>3 to ≦10)
[3]; read-out: EC50
  EC50: < 50 nM

## CCOP(=O)(COc1ccc(CN2C(=O)N(Cc3ccc4[nH]nc(N)c4c3)C(Cc3ccccc3)C(O)C(O)C2Cc2ccccc2)cc1)OCC (stereo not shown)
WT
  EC50: 2480 nM
84V90M
  EC50: > 6000 nM
30N82I88D
  EC50: 1340 nM

## CCOP(=O)(CCC1=CCN(CC(NC(=O)OC2COC3OCCC23)C(O)CN(CC(C)C)S(=O)(=O)c2ccc(OC)cc2)CC1)OCC (stereo not shown)
[2]; [6]
  I84V/L90M fold change: + (>3 to ≦10)
[3]; read-out: EC50
  EC50: < 50 nM

## COc1ccc(S(=O)(=O)N(CC(C)C)C[C@@H](O)[C@H](CN2CCc3cc(OCP(=O)(O)OC(C)C(=O)O)ccc3C2)NC(=O)O[C@H]2CO[C@H]3OCC[C@H]32)cc1 (stereo partly shown)
[1]; read-out: Ki
  Ki: 100 to 1000 pM

## CCOP(=O)(CCCNC(=O)c1cccc(CN2C(=O)N(Cc3ccc4[nH]nc(N)c4c3)C(Cc3ccccc3)C(O)C(O)C2Cc2ccccc2)c1)OCC (stereo not shown)
WT
  EC50: 188 nM
84V90M
  EC50: 476 nM

## CCOC(=O)C(C)OP(=O)(CCN(C)Cc1ccc(CC(NC(=O)OC2COC3OCCC23)C(O)CN(CC(C)C)S(=O)(=O)c2ccc(OC)cc2)cc1)Oc1ccccc1 (stereo not shown) [drawing 663 R1=Ph R2=Lac-Et]
[1]; [5]
  Ki: 100 to 1000 pM
[2]; [6]
  I84V/L90M fold change: + (>3 to ≦10)
[3]; Human immunodeficiency virus 1, IIIB, MT2, class symbols, Table 10
  EC50: 50 to 500 nM

## Nc1n[nH]c2ccc(CN3C(=O)N(Cc4cccc(OCP(=O)(Oc5ccccc5)Oc5ccccc5)c4)C(Cc4ccccc4)C(O)C(O)C3Cc3ccccc3)cc12 (stereo not shown) [m-OCH2PO3Ph2]
84V90M
  EC50: > 6000 nM

## CCOC(=O)C(C)OP(=O)(Oc1ccccc1)c1ccc(CN(C)CC(NC(=O)OC2COC3OCCC23)C(O)CN(CC(C)C)S(=O)(=O)c2ccc(OC)cc2)cc1 (stereo not shown)
[2]; [6]
  I84V/L90M fold change: + (>3 to ≦10)
[3]; read-out: EC50
  EC50: < 50 nM

## Nc1n[nH]c2ccc(CN3C(=O)N(CCCCOCP(=O)(O)O)C(Cc4ccccc4)C(O)C(O)C3Cc3ccccc3)cc12 (stereo not shown) [CH2OCH2PO3H2]
84V90M
  EC50: > 4240 nM

## Cc1ccc(C(=O)N[C@@H](Cc2ccc(OCP(=O)(OCc3ccccc3)OCc3ccccc3)cc2)[C@H](O)CN(CC(C)C)S(=O)(=O)c2ccc(N)cc2)cc1O
[2]; I84V/L90M mutant
  I84V/L90M fold change: + (>3 to ≦10)
[3]; read-out: EC50
  EC50: 50 to 500 nM

## COc1ccc(S(=O)(=O)N(CC(C)C)CC(O)C(Cc2ccc(NCP(=O)(NC(C)C(=O)OC(C)C)Oc3ccccc3)cc2)NC(=O)OC2COC3OCCC23)cc1 (stereo not shown) [drawing 704]
[1]; [5]
  Ki: 10 to 100 pM

## CCOP(=O)(CCn1nc(O)c2cc(CN3C(=O)N(Cc4ccccc4)[C@H](Cc4ccccc4)[C@H](O)[C@@H](O)[C@H]3Cc3ccccc3)ccc21)OCC
[1]; read-out: Enzymatic assay WT IC50/nM
  IC50: 109 nM
